Article PMC7382816 (BMC Pharmacology & Toxicology, 2020)
Read-outs that look alike come from different tables or passages of the source.

Test: Single-dose pharmacokinetics in healthy volunteers under fasting and fed (high-fat breakfast) conditions, plasma concentrations by HPLC-MS, non-compartmental analysis
Type: in vivo, human
Design: Ke: unit not given here
Source text: The bioequivalence clinical trials were phase I, randomized, open-label, crossover, single-centre, with two periods separated by a 7-day washout stage. Subjects were randomised to one of the two treatment sequences, RT or TR where R was the reference formulation and T was the test formulation. Each of the clinical trial was crossover for evaluation of a test formulation compared to a reference formulation either under fed or fasting conditions. […] The treatments were allocated in a balanced manner on every inclusion day (blocks of 4 subjects). Our study adheres to CONSORT guidelines. […] Sample processing, genotyping for CYP2C19 and drug quantification were performed according to Román et al. […] Pharmacokinetic parameters were estimated from the plasma concentration–time data by non-compartmental analysis (WinNonlin Professional, version 2.0., Pharsight Corporation, USA) as reported by Román et al. […] WinNonLin Professional software version 2.0 was used for the statistical analysis. Pharmacokinetic parameters were log-transformed, and AUC and Cmax were adjusted for dose and weight. The values of pharmacokinetic parameters were expressed as mean ± standard deviation.

[1] = Fast, men, single oral dose, mean ± SD
[2] = both sexes, human, plasma, oral, only CYP2C19*1/*1 subjects, Fast, men and women, mean ± SD
[3] = both sexes, human, plasma, oral, only CYP2C19*1/*1 subjects, Fed, men and women, mean ± SD
[4] = both sexes, human, plasma, po, Fast, all subjects, single oral dose, mean ± SD
[5] = both sexes, human, plasma, po, Fed (high-fat breakfast), all subjects, single oral dose, mean ± SD
[6] = female, human, plasma, oral, only CYP2C19*1/*1 subjects, Fast, women, mean ± SD
[7] = female, human, plasma, oral, only CYP2C19*1/*1 subjects, Fed, women, mean ± SD
[8] = female, human, plasma, po, Fast, women, single oral dose, mean ± SD
[9] = female, human, plasma, po, Fed, women, single oral dose, mean ± SD
[10] = male, human, plasma, oral, only CYP2C19*1/*1 subjects, Fast, men, mean ± SD
[11] = male, human, plasma, oral, only CYP2C19*1/*1 subjects, Fed, men, mean ± SD
[12] = male, human, plasma, po, Fast, men, single oral dose, mean ± SD
[13] = male, human, plasma, po, Fed, men, single oral dose, mean ± SD
[14] = only CYP2C19*1/*1 subjects, Fast, men, mean ± SD
[15] = only CYP2C19*1/*1 subjects, Fast, women, mean ± SD
[16] = only CYP2C19*1/*1 subjects, Fed, men and women, mean ± SD
[17] = only CYP2C19*1/*1 subjects, Fed, men, mean ± SD

SMILES: COc1ccc2[nH]c([S+]([O-])Cc3ncc(C)c(OC)c3C)nc2c1 (stereo not drawn) [Omeprazole, omeprazole]
- Ke (Fast, all subjects, single oral dose, mean ± SD): 0.76 ± 0.29
- Cmax [1]: 858.8 ± 432.6 ng/mL
- Ke [1]: 0.70 ± 0.29
- Ke (Fast, women, single oral dose, mean ± SD): 0.82 ± 0.29
- Ke (Fed (high-fat breakfast), all subjects, single oral dose, mean ± SD): 0.67 ± 0.32
- Ke (Fed, men, single oral dose, mean ± SD): 0.69 ± 0.35
- Ke (Fed, women, single oral dose, mean ± SD): 0.65 ± 0.30
- AUC(0-inf) [2]: 1710 ± 1300 ng·h/mL
- CL/F [2]: 9.5 mL/min/kg
- Vd/F [2]: 0.69 ± 0.38 L/kg
- half-life [2]: 1 ± 0.4 h
- Cmax (both sexes, human, plasma, oral, only CYP2C19*1/*1 subjects, Fast, men and women, mean ± SD, read-out: Cmax): 860 ± 395 ng/mL
- Tmax (both sexes, human, plasma, oral, only CYP2C19*1/*1 subjects, Fast, men and women, mean ± SD, read-out: Tmax): 1.8 ± 0.6 h
- AUC(0-inf) [3]: 1520 ± 1290 ng·h/mL
- CL/F [3]: 10.3 mL/min/kg
- Vd/F [3]: 0.77 ± 0.43 L/kg
- half-life [3]: 1 ± 0.4 h
- Cmax (both sexes, human, plasma, oral, only CYP2C19*1/*1 subjects, Fed, men and women, mean ± SD, read-out: Cmax): 604 ± 363 ng/mL
- Tmax (both sexes, human, plasma, oral, only CYP2C19*1/*1 subjects, Fed, men and women, mean ± SD, read-out: Tmax): 4.9 h
- Tmax (both sexes, human, plasma, oral, under fasting conditions, range among subjects, read-out: Tmax range): 1 to 3.5 h
- Tmax (both sexes, human, plasma, oral, under fed conditions, range among subjects, read-out: Tmax range): 1 to 17 h
- AUC(0-inf) [4]: 2190 ± 2010 ng·h/mL
- CL/F [4]: 8.83 mL/min/kg
- Vd/F [4]: 0.64 ± 0.34 L/kg
- Cmax (both sexes, human, plasma, po, Fast, all subjects, single oral dose, mean ± SD, read-out: Cmax): 931 ± 435 ng/mL
- Tmax (both sexes, human, plasma, po, Fast, all subjects, single oral dose, mean ± SD, read-out: Tmax): 2 ± 0.7 h
- AUC(0-inf) [5]: 1930 ± 1880 ng·h/mL
- CL/F [5]: 10.7 mL/min/kg
- Vd/F [5]: 1.02 ± 1.07 L/kg
- Cmax (both sexes, human, plasma, po, Fed (high-fat breakfast), all subjects, single oral dose, mean ± SD, read-out: Cmax): 683 ± 394 ng/mL
- Tmax (both sexes, human, plasma, po, Fed (high-fat breakfast), all subjects, single oral dose, mean ± SD, read-out: Tmax): 4.9 ± 1.1 h
- AUC lower under fed conditions (fed vs fasting, all subjects): 12%
- Cmax lower under fed conditions (fed vs fasting, all subjects): 27%
- Delay of mean Tmax (absorption) by food (fed vs fasting, all subjects): about 3 h
- half-life higher under fed conditions (fed vs fasting, all subjects): 15%
- Delay of Tmax by food (fed vs fasting, only subjects with CYP2C19*1/*1): 3 h
- AUC(0-inf) [6]: 1980 ± 1220 ng·h/mL
- CL/F [6]: 8.83 mL/min/kg
- Vd/F [6]: 0.69 ± 0.46 L/kg
- half-life [6]: 1 ± 0.3 h
- AUC(0-inf) [7]: 1710 ± 1250 ng·h/mL
- CL/F [7]: 9.5 mL/min/kg
- Vd/F [7]: 0.84 ± 0.54 L/kg
- Cmax (female, human, plasma, oral, only CYP2C19*1/*1 subjects, Fed, women, mean ± SD, read-out: Cmax): 640 ± 275 ng/mL
- Tmax (female, human, plasma, oral, only CYP2C19*1/*1 subjects, Fed, women, mean ± SD, read-out: Tmax): 5.4 ± 0.4 h
- AUC(0-inf) [8]: 2020 ± 1500 ng·h/mL
- CL/F [8]: 9.33 mL/min/kg
- Vd/F [8]: 0.63 ± 0.31 L/kg
- half-life [8]: 1 ± 0.4 h
- Cmax (female, human, plasma, po, Fast, women, single oral dose, mean ± SD, read-out: Cmax): 999 ± 438 ng/mL
- Tmax (female, human, plasma, po, Fast, women, single oral dose, mean ± SD, read-out: Tmax): 1.9 ± 0.6 h
- AUC(0-inf) [9]: 1720 ± 1400 ng·h/mL
- CL/F [9]: 12.2 mL/min/kg
- Vd/F [9]: 1.3 ± 1.38 L/kg
- Cmax (female, human, plasma, po, Fed, women, single oral dose, mean ± SD, read-out: Cmax): 640 ± 640 ng/mL
- Tmax (female, human, plasma, po, Fed, women, single oral dose, mean ± SD, read-out: Tmax): 5.4 ± 1 h
- AUC(0-inf) [10]: 1470 ± 1400 ng·h/mL
- CL/F [10]: 10.3 mL/min/kg
- Vd/F [10]: 0.68 ± 0.46 L/kg
- Cmax (male, human, plasma, oral, only CYP2C19*1/*1 subjects, Fast, men, mean ± SD, read-out: Cmax): 654 ± 306 ng/mL
- AUC(0-inf) [11]: 1410 ± 1160 ng·h/mL
- CL/F [11]: 10.5 mL/min/kg
- Vd/F [11]: 0.73 ± 0.38 L/kg
- half-life [11]: 1 ± 0.4 h
- Tmax (male, human, plasma, oral, only CYP2C19*1/*1 subjects, Fed, men, mean ± SD, read-out: Tmax): 4.3 ± 1 h
- AUC(0-inf) [12]: 2380 ± 2480 ng·h/mL
- CL/F [12]: 8.33 mL/min/kg
- Vd/F [12]: 0.65 ± 0.38 L/kg
- Tmax (male, human, plasma, po, Fast, men, single oral dose, mean ± SD, read-out: Tmax): 2.1 ± 0.7 h
- AUC(0-inf) [13]: 2140 ± 2280 ng·h/mL
- CL/F [13]: 9.5 mL/min/kg
- Vd/F [13]: 0.75 ± 0.52 L/kg
- Cmax (male, human, plasma, po, Fed, men, single oral dose, mean ± SD, read-out: Cmax): 725 ± 448 ng/mL
- Tmax (male, human, plasma, po, Fed, men, single oral dose, mean ± SD, read-out: Tmax): 4.5 ± 0.9 h
- Ke (only CYP2C19*1/*1 subjects, Fast, men and women, mean ± SD): 0.81 ± 0.23
- Ke [14]: 0.82 ± 0.25
- Tmax [14]: 2.0 ± 0.7 h
- Cmax [15]: 1094.3 ± 366.6 ng/mL
- Ke [15]: 0.79 ± 0.23
- Ke [16]: 0.80 ± 0.36
- Tmax [16]: 4.7 ± 1.0 h
- Cmax [17]: 582.8 ± 419.1 ng/mL
- Ke [17]: 0.84 ± 0.39
- Ke (only CYP2C19*1/*1 subjects, Fed, women, mean ± SD): 0.72 ± 0.32
